Assays:
IL-1 = experiment: Effect on IL-1 synthesis and release (supernatants, homogenates, lysates of human monocytes); type: cell-based; conditions: chondrocyte bioassay and RIA
Method: 0.3 ml Phosphate-buffered saline, containing 1 % heat-in-activated AB-human serum, is added to washed adherent human monocytes and the cells are detached using a rubber-policeman. The solution containing the cells is then transferred to two other wells belonging to the same group. This procedure is repeated three times. The final pooled suspension (0.9 ml) is homogenized using a Dounce homogenizer (Kontes Co, Vineland, NJ) by five times 7 strokes with the B-pestle.
The lysate is prepared by adding to the washed human monocyte monolayers 0.3 ml 0.01 % digitonin in water.
50 μl homogenate is diluted to 500 μl with medium and added to confluent chondrocytes to monitor the metalloproteinase inducing activity as a measure of IL-I content.
The content of IL-1 was also determined in the culture media and the cell homogenates and cell lysates using the RIA-test (see 1.3.).

[1] = Acute toxicity (LD50) in mice; conditions: mouse, in vivo, substantially pure Z-isomeric form

Q: With COC1=Cc2ccccc2/C(=C/C(=O)O)c2ccsc21 [Compound D2, [10-Methoxy-4H-benzo[4,5]cyclohepta[1,2-b]thiophen-4-ylidene]-acetic acid] as the molecule, how does the “levels of IL-1 in the supernatant media” value (IL-1) read?
A: The value was “significantly reduce the levels of IL-1 in the supernatant media”.

Q: And the “mean cellular content of IL-1” value (IL-1; homogenates and lysates)?
A: The value was “only slightly reduced or remains unchanged”.

Q: What about the LD50 at 168 h ([1]; iv, 7 days) of the same molecule?
A: Its LD50 at 168 h is 163 mg/kg.

Q: What about the LD50 at 336 h ([1]; po, 14 days) of the same molecule?
A: The LD50 at 336 h was 1620 mg/kg.
